From publication PMC4457840, “Differential Inhibition of Signal Peptide Peptidase Family Members by Established γ-Secretase Inhibitors” (PLoS ONE, 2015)

Legend:
γ-secretase = tested on: γ-secretase; set-up: method as in PMID 24352661, PMID 23791707; details: cited from earlier work
SPPL2a = biological target: T1, SPPL2a (Homo sapiens, UniProt Q8TCT8); assay: FBA/SPPL2a co-transfected HEK 293T cell cleavage assay (Aβ ELISA, Western blot); type: cell-based; details: overnight
T1 construct: expressed in transfected cells; host or cells: HEK 293T
T1 sequence (Q8TCT8 26-520): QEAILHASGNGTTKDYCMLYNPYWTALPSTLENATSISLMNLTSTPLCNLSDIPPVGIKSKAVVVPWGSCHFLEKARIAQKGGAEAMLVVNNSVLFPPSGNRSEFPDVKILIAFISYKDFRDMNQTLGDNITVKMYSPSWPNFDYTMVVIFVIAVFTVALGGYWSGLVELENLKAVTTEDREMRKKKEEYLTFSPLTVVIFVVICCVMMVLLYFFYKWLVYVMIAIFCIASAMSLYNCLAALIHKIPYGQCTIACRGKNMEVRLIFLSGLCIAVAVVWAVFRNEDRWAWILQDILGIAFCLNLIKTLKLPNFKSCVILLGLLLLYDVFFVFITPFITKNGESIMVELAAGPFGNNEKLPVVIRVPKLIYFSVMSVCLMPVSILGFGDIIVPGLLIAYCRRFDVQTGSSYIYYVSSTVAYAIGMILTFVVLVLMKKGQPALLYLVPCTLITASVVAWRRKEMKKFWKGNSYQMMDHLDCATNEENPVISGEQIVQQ

SPP = tested on: SPP; set-up: method as in PMID 15252014, PMID 19337374, PMID 12621027; details: cited from earlier work

Structure (SMILES) | inhibition of γ-secretase cleavage of APP (γ-secretase) | inhibition at 10 µM (SPPL2a) | inhibition of SPP activity (SPP)
CC(C)C[C@H](NC(=O)OCc1ccccc1)C(=O)N[C@@H](CC(C)C)C(=O)NCC(=O)CNC(=O)[C@H](CC(C)C)NC(=O)[C@H](CC(C)C)NC(=O)OCc1ccccc1 [(Z-LL)2 ketone] | does not inhibit | > 75% | 
C[C@H](NC(=O)Cc1cc(F)cc(F)c1)C(=O)NC(C(=O)OC(C)(C)C)c1ccccc1 (stereo partly shown) [DAPT] |  |  | selectively inhibit PSENs, but not SPPs
C[C@H](NC(=O)[C@@H](O)c1cc(F)cc(F)c1)C(=O)N[C@@H]1C(=O)N(C)c2ccccc2-c2ccccc21 [LY-411,575] |  |  | inhibit the activity of SPP
